The test system of data set [1] is Staphylococcus aureus (OC8525), a methicillin-resistant strain (MRSA). The data set can be described thus: In vivo efficacy in a mouse systemic infection model. Conditions: for ED50: Staphylococcus aureus, 72 h, Swiss Webster mice infected i.p. with MRSA, 3 day survival, normalized to parent content; for % Survival: i.v., single dose level, mice. The method, then: Female Swiss Webster mice weighing between 20-25 g were infected intraperitoneally with approximately 5×10^5 colony forming units (CFU) Staphylococcus aureus (OC8525), a methicillin-resistant strain (MRSA), in 7% mucin. One hour later, the animals were given the test compound intravenously or orally in a dose volume of 0.2 mL. Each animal test group consisted of eight animals. The test compounds were prepared immediately before dosing in 5% dextrose in water (D5W) and diluted further in D5W for i.v. and p.o. administration. The mice were observed over a three day period and ED50 values were calculated from the resulting % survival curves (see Table 13, below). The measured ED50 values were normalized to the content of (E)-7-(3-(2-amino-1-fluoroethylidene)piperidin-1-yl)-1-cyclopropyl-6-fluoro-8-methoxy-4-oxo-1,4-dihydroquinoline-3-carboxylic acid. For some compounds, in vivo efficacy was determined by testing a group of eight mice at a single dose level only. In these cases, the data presented in Table 13, below are reported as percent survival at the designated dose.

A short description of data set [2]: Clarity of test compound solutions at […] (aqueous solubility). Conditions: for solubility at 24 h: pH 4, aqueous buffer; for Aqueous Solubility pH~7 (visual clarity): […] active-form equivalents, pH 7 (50 mM phosphate), after 24 hours. The protocol:
A 50-mg/mL solution of a compound of formula (I) or a compound of formula (II) in H2O was titrated with 0.1 M NaOH until pH reached 5.7-6.1. Any solid that precipitated was filtered. The remaining solutions or phase-separated oil/H2O mixtures were freeze-dried to produce zwitterions as fluffy solids.
The aqueous solubility of Compounds #14, #15 and #16 were determined by a modified procedure. In these cases, the samples were targeted at a pH of 4 and 7 and were measured exclusively using 100 mM phosphate buffers. For both pH's, measured samples were initially prepared at ˜3 mg/ml and ˜10 mg/ml concentrations and for samples that dissolved rapidly, additional compound was added to the solution until saturated solutions were obtained.

The mark [3] stands for this setting: oral dose 1 h later, read-out: ED50 p.o.
Where [4] appears, read: iv, i.v. dose 1 h later, read-out: ED50 i.v.
Where [5] appears, read: 50 mM citrate buffer, thermodynamic from solid.

Read-outs that look alike come from different tables or passages of the source.

As for `COc1c(N2CCC/C(=C(\F)CNC(=O)[C@H](C)NC(=O)[C@H](C)N)C2)c(F)cc2c(=O)c(C(=O)O)cn(C3CC3)c12.Cl` [Compound 2, 7-(3-{2-[(2S)-2-((2S)-2-Amino-propionylamino)-propionylamino]-1-fluoro-ethylidene}-piperidin-1-yl)-1-cyclopropyl-6-fluoro-8-methoxy-4-oxo-1,4-dihydro-quinoline-3-carboxylic acid hydrochloride], the values for the ED50 in data set [1] (setting [3]) and in data set [1] (setting [4]) were over 14.9 mg/kg and 2.6 mg/kg, respectively. In data set [2] (setting [5]), the solubility at 24 h was under 3300 µg/mL. Further, the “Aqueous Solubility pH~7 (visual clarity)” value in data set [2] is “No”.
The like results for `COc1c(N2CCC/C(=C(\F)CNC(=O)[C@@H](N)Cc3ccccc3)C2)c(F)cc2c(=O)c(C(=O)O)cn(C3CC3)c12.Cl` [Compound 3, 7-{3-[2-((2S)-2-Amino-3-phenyl-propionylamino)-1-fluoro-ethylidene]-piperidin-1-yl}-1-cyclopropyl-6-fluoro-8-methoxy-4-oxo-1,4-dihydro-quinoline-3-carboxylic acid hydrochloride] were, in that order, over 14.8 mg/kg, 1.4 mg/kg, under 3300 µg/mL and “No”.
On the same counts, the results for `COc1c(N2CCC/C(=C(\F)CNC(=O)[C@@H](N)CC(=O)O)C2)c(F)cc2c(=O)c(C(=O)O)cn(C3CC3)c12.Cl` [Compound 5, 7-{3-[2-((2S)-2-Amino-3-carboxy-propionylamino)-1-fluoro-ethylidene]-piperidin-1-yl}-1-cyclopropyl-6-fluoro-8-methoxy-4-oxo-1,4-dihydro-quinoline-3-carboxylic acid hydrochloride] are over 15.7 mg/kg, over 3.9 mg/kg, under 3300 µg/mL and “No”.
On to `CN[C@@H](C)C(=O)NC/C(F)=C1/CCCN(c2c(F)cc3c(=O)c(C(=O)O)cn(C4CC4)c3c2OC)C1.Cl` [Compound 7, 1-Cyclopropyl-6-fluoro-7-{3-[1-fluoro-2-((2S)-2-methylamino-propionylamino)-ethylidene]-piperidin-1-yl}-8-methoxy-4-oxo-1,4-dihydro-quinoline-3-carboxylic acid hydrochloride], for which the “% Survival” value in data set [1] (at 2.1 mg/kg/day) turned out to be 0% at 2.1 mg/kg/day. Besides, in data set [2] (setting [5]), the solubility at 24 h was over 3300 µg/mL. In addition, the “Aqueous Solubility pH~7 (visual clarity)” value in data set [2] is recorded as “Yes”.
In the case of `COc1c(N2CCC/C(=C(\F)CNC(=O)OCc3oc(=O)oc3C)C2)c(F)cc2c(=O)c(C(=O)O)cn(C3CC3)c12` [Compound 8, 1-Cyclopropyl-6-fluoro-7-{3-[1-fluoro-2-(5-methyl-2-oxo-[1,3]dioxol-4-ylmethoxycarbonylamino)-ethylidene]-piperidin-1-yl}-8-methoxy-4-oxo-1,4-dihydro-quinoline-3-carboxylic acid], the solubility at 24 h in data set [2] (setting [5]) was under 3300 µg/mL. In addition, in data set [2], the “Aqueous Solubility pH~7 (visual clarity)” value is given as “No”.
Regarding `COc1c(N2CCC/C(=C(\F)CNC(=O)[C@@H](N)CCCCN)C2)c(F)cc2c(=O)c(C(=O)O)cn(C3CC3)c12.Cl.Cl` [Compound 9, 1-Cyclopropyl-7-{3-[2-((2S)-2,6-diamino-hexanoylamino)-1-fluoro-ethylidene]-piperidin-1-yl}-6-fluoro-8-methoxy-4-oxo-1,4-dihydro-quinoline-3-carboxylic acid dihydrochloride], the “% Survival” value in data set [1] (at 1.9 mg/kg/day) is given as 25% at 1.9 mg/kg/day. The compound also showed a solubility at 24 h in data set [2] (setting [5]) of over 3300 µg/mL. In addition, the “Aqueous Solubility pH~7 (visual clarity)” value in data set [2] is recorded as “Yes”.
Consider `COc1c(N2CCC/C(=C(\F)CNC(=O)[C@H](CC(C)C)NC(=O)[C@H](C)N)C2)c(F)cc2c(=O)c(C(=O)O)cn(C3CC3)c12.Cl` [Compound 10, 7-(3-{2-[(2S)-2-((2S)-2-Amino-propionylamino)-4-methyl-pentanoylamino]-1-fluoro-ethylidene}-piperidin-1-yl)-1-cyclopropyl-6-fluoro-8-methoxy-4-oxo-1,4-dihydro-quinoline-3-carboxylic acid hydrochloride], for which the “% Survival” value in data set [1] (at 2.4 mg/kg/day) was found to be 25% at 2.4 mg/kg/day. This compound had a solubility at 24 h in data set [2] (setting [5]) of under 3300 µg/mL. Besides, the “Aqueous Solubility pH~7 (visual clarity)” value in data set [2] was “No”.
Consider `CCOC(=O)c1cn(C2CC2)c2c(OC)c(N3CCC/C(=C(\F)CN)C3)c(F)cc2c1=O.Cl` [Compound 11, 7-[3-(2-Amino-1-fluoro-ethylidene)-piperidin-1-yl]-1-cyclopropyl-6-fluoro-8-methoxy-4-oxo-1,4-dihydro-quinoline-3-carboxylic acid ethyl ester hydrochloride], for which the ED50 is 6.7 mg/kg in data set [1] (setting [3]) and 1.2 mg/kg in data set [1] (setting [4]). In data set [2] (setting [5]), this compound displayed a solubility at 24 h of under 3300 µg/mL. Besides, in data set [2], the “Aqueous Solubility pH~7 (visual clarity)” value is given as “No”.
For `CCOP(=O)(NCC(F)=C1CCCN(c2c(F)cc3c(=O)c(C(=O)[O-])cn(C4CC4)c3c2OC)C1)OCC.[Na+]` [Compound 13, 1-Cyclopropyl-7-{3-[2-(diethoxy-phosphorylamino)-1-fluoro-ethylidene]-piperidin-1-yl}-6-fluoro-8-methoxy-4-oxo-1,4-dihydro-quinoline-3-carboxylic acid sodium salt], the “% Survival” value in data set [1] (at 3.8 mg/kg/day) was found to be 12.5% at 3.8 mg/kg/day. Also, the solubility at 24 h in data set [2] (thermodynamic from solid) was under 3300 µg/mL. This compound registered a solubility in data set [2] (pH 7.8, aqueous buffer, thermodynamic from solid) of 1800 µg/mL.

Source of the values: patent publication US20110172193A1, “PRO-DRUGS OF (E)-7-(3-(2-AMINO-1-FLUOROETHYLIDENE)PIPERIDIN-1-YL)-1-CYCLOPROPYL-6-FLUORO-8-METHOXY-4-OXO-1,4-DIHYDROQUINOLINE-3-CARBOXYLIC ACID” (priority 2010, published 2011).
